Results as given in patent publication US7456154B2 (priority 2001, dated 2008).

Assays:
[1] = tested on: AChE-R mRNA; experiment: In situ hybridization of AChE-R mRNA in rat muscle; format: in vivo; settings: healthy and EAMG rats
Procedure: In situ hybridization: Tissues were fixed in 4% paraformaldehyde and cut into 7 μm paraffin embedded sections. Spinal cord sections were deparaffinized, rehydrated using serial ethanol dilutions and permeabilized with proteinase K (10 μg/ml at room temp.). Slides were exposed to 5′ biotinylated, fully 2′-oxymethylated AChE-R or AChE-S-specific 50-mer cRNA probes complementary to human ACHE pseudo-intron 4 or exon 6, respectively [Grisaru et al. (2001) id ibid.]. Hybridization was performed overnight at 52° C. in hybridization mixture containing 10 μg/ml probe, 50 μg/ml yeast tRNA, 50 μg/ml heparin and 50% formamide in 375 mM Na chloride, 37.5 mM Na citrate, pH 4.5. For monkey sections, the probe was constructed according to the human AChE-R sequence; for rat sections, according to the mouse sequence. Slides were washed to remove non-hybridized probe, blocked with 1% skim milk containing 0.01% Tween-20 and 2 mM levamisole, an alkaline phosphatase inhibitor used to suppress non-specific staining and incubate with streptavidin-alkaline phosphatase (Amersham Pharmacia). Fast Red™ substrate (Roche Diagnostics) was used for detection. DAPI staining (Sigma Chemical Co., St. Louis, Mo., USA) served to visualize nuclei. Microscope images were analyzed with Image Pro Plus 4.0 (Media Cybernetics) software. […]

[2] = tested on: AChE-R; experiment: Immunohistochemical staining of AChE-R in rat muscle; format: in vivo; settings: healthy and EAMG rats, 24 h after single i.v. injection of 250 μg/Kg
Procedure: Immunocytochemistry: Muscle sections were deparaffinized with xylene and were re-hydrated in graded ethanol solutions (100%, 90%, 70%) and PBS. Heat-induced antigen retrieval was performed by microwave treatment (850 W for rapid boil following 10 min in reduced intensity) in 500 ml of 0.01M citrate buffer pH 6.0. Slides were cooled to room temperature and rinsed in double distilled water. Non-specific binding was blocked by 4% nominal donkey serum in PBS with 0.3% Triton X-100 and 0.05% Tween 20 (1 hr at room temperature). Biotinylated primary antibody was diluted (1:100 and 1:30 for rabbit anti-AChE-R [Sternfeld et al. (2000) id ibid] and goat anti-nAChR, respectively) in the same buffer and slides were incubated 1 hr at room temperature following overnight incubation at 4° C. Sections were rinsed and incubated with alkaline phosphatase-conjugated secondary antibody, diluted in the same blocking buffer 1 hr at room temperature and then overnight at 4° C. Detection was with the alkaline phosphatase substrate Fast Red (Roche Diagnostics, Mannheim, Germany). Slides were simultaneously transferred to a stop solution (25 mM EDTA, 0.05% Triton X-100, 1 mM levamisole in PBS, pH 7.2), rinsed in PBS and cover-slipped with Immunomount (Shandon). […]

[3] = tested on: Cynomolgus monkeys; experiment: 7-day toxicology study of hEN101 in Cynomolgus monkeys; format: in vivo, Cynomolgus monkey
Procedure: This experiment was conducted with six (3 males and 3 females) purpose-bred 15 month-old (young adult) Cynomolgus monkeys, divided in three groups (1, 2 and 3) of one male and one female each. Groups 1 and 2 received hEN101 daily by o.g. for a period of 7 days, at a concentration of 0.15 and 0.50 μg/g/day, respectively. Group 3 received daily i.v. injections of hEN101 for a period of 7 days at a dosage of 0.50 μg/g/day.
Over a 12 hour period, plasma samples were obtained during the second treatment day to investigate the toxicokinetic profile at each dosage. The toxicology study consisted of checking the animals during the 7 days of treatment for gross signs of toxicity by the following parameters: mortality, body weight, food consumption, electrocardiography, blood pressure, hematology (peripheral blood), and blood chemistry. At 7 days the monkeys were sacrificed and examined post-mortem for macroscopic pathology and organ weight. Fixed sections of brain (cerebellum, cerebrum, midbrain, medulla), caecum, colon, duodenum, heart (auricular and ventriclar regions), ileum, jejunum, kidneys (cortex, medulla, papilla regions), liver (two main lobes), lungs (two major lobes, including bronchi), lymph nodes (mandibular and mesenteric), esophagus, rectum, sciatic nerve, skeletal muscle (thigh), spinal cord (transverse and longitudinal sections at cervical level), spleen and stomach (body and antrum) were stained with hematoxylin/eosin to reveal necrosis or cell death.

| Substance | AChE-R mRNA labeling in muscle [1] | AChE-R immunohistochemical staining in muscle [2] | Post-mortem finding at injection site ([3]; i.v. 0.50 μg/g/day, 7 days) | Animals with slight healing erosions in the body of the stomach post-mortem ([3]; in each group, possibly associated with treatment) | Clinical investigations for toxicity ([3]; o.g. 0.15 or 0.50 μg/g/day, i.v. 0.50 μg/g/day, 7 days) |
| --- | --- | --- | --- | --- | --- |
| 5′-CTGCGATATTTTCTTGTACC-3′ (chemistry not given here) [rEN101] | almost to the limit of detection | significantly reduced |  |  |  |
| 5′-CTGCCACGTTCTCCTGCACC-3′ [hEN101] |  |  | some irritation of the perivascular tissue at the site of intravenous injection | 1 of 2 | no toxicological effects |
